Assay results: patent US7109338B2, “1,2-disubstituted 1,4-dihydro-4-oxoquinoline compounds” (priority 1999, dated 2006)
Values after ≈ are worked out from the molar mass of the structure shown.

Experiments:
[1] = test system: Poliovirus type 1 (Polio 1, Sabin); assay: microbe, parasite or virus in culture; assay type: cell-based
[2] = test system: echovirus type 11 (Echo 11, Gregory); assay: In vitro anti-picornavirus activity (MTT), Echo 11; assay type: cell-based; settings: HeLa-S3 cells, MTT method, 37° C.
[3] = test system: coxsackievirus type A7 (CA7); assay: In vitro anti-picornavirus activity (MTT), CA7; assay type: cell-based; settings: HeLa-S3 cells, MTT method, 37° C.
[4] = test system: coxsackievirus type B4 (CB4,JVB); assay: In vitro anti-picornavirus activity (MTT), CB4; assay type: cell-based; settings: HeLa cells, MTT method, 37° C.
[5] = test system: HRV1A (E28); assay: Anti-rhinovirus activity (MTT), HRV1A; assay type: cell-based, human rhinovirus; parameters: Anti-Rhinovirus activity, HRV1A: unit not given here; settings: for IC50 HRV 1A: HeLa (Ohio strain) cells, MTT method, 33° C.
[6] = test system: human rhinovirus type 1B (HRV 1B, B632); assay: Anti-rhinovirus activity (MTT), HRV1B; assay type: cell-based; parameters: Anti-Rhinovirus activity, HRV1B: unit not given here; settings: for IC50 HRV1B: HeLa (Ohio strain) cells, MTT method, 33° C.
[7] = test system: HRV 2 (HGP); assay: Anti-rhinovirus activity (MTT), HRV2; assay type: cell-based, human rhinovirus; parameters: Anti-Rhinovirus activity, HRV2: unit not given here; settings: for IC50 HRV2: HeLa (Ohio strain) cells, MTT method, 33° C.
[8] = test system: HRV14 (1059); assay: Anti-rhinovirus activity (MTT), HRV14; assay type: cell-based, human rhinovirus; parameters: Anti-Rhinovirus activity, HRV14: unit not given here; settings: for IC50 HRV 14: HeLa (Ohio strain) cells, MTT method, 33° C.
[9] = test system: HRV 89 (41617-Gallo); assay: Anti-rhinovirus activity (MTT), HRV89; assay type: cell-based, human rhinovirus; parameters: Anti-Rhinovirus activity, HRV89: unit not given here; settings: for IC50 HRV89: HeLa (Ohio strain) cells, MTT method, 33° C.
[10] = test system: HRV3(FEB); assay: Anti-rhinovirus spectrum (MTT), HRV3; assay type: cell-based, human rhinovirus; parameters: Anti-Rhinovirus activity, HRV3: unit not given here; settings: HRV3
[11] = test system: HRV5; assay: Anti-rhinovirus spectrum (MTT), HRV5; assay type: cell-based, human rhinovirus; parameters: Anti-Rhinovirus activity, HRV5: unit not given here; settings: HRV5
[12] = test system: HRV8(MRH); assay: Anti-rhinovirus spectrum (MTT), HRV8; assay type: cell-based, human rhinovirus; parameters: Anti-Rhinovirus activity, HRV8: unit not given here; settings: HRV8
[13] = test system: HRV10 (204-CV14); assay: Anti-rhinovirus spectrum (MTT), HRV10; assay type: cell-based, human rhinovirus; parameters: Anti-Rhinovirus activity, HRV10: unit not given here; settings: HRV10
[14] = test system: HRV13 (353); assay: Anti-rhinovirus spectrum (MTT), HRV13; assay type: cell-based, human rhinovirus; parameters: Anti-Rhinovirus activity, HRV13: unit not given here; settings: HRV13
[15] = test system: HRV16 (11757); assay: Anti-rhinovirus spectrum (MTT), HRV16; assay type: cell-based, human rhinovirus; parameters: Anti-Rhinovirus activity, HRV16: unit not given here; settings: HRV16
[16] = test system: HRV21 (47); assay: Anti-rhinovirus spectrum (MTT), HRV21; assay type: cell-based, human rhinovirus; parameters: Anti-Rhinovirus activity, HRV21: unit not given here; settings: HRV21
[17] = test system: HRV29 (5582); assay: Anti-rhinovirus spectrum (MTT), HRV29; assay type: cell-based, human rhinovirus; parameters: Anti-Rhinovirus activity, HRV29: unit not given here; settings: HRV29
[18] = test system: HRV31 (41F); assay: Anti-rhinovirus spectrum (MTT), HRV31; assay type: cell-based, human rhinovirus; parameters: Anti-Rhinovirus activity, HRV31: unit not given here; settings: HRV31
[19] = test system: HRV32 (363); assay: Anti-rhinovirus spectrum (MTT), HRV32; assay type: cell-based, human rhinovirus; parameters: Anti-Rhinovirus activity, HRV32: unit not given here; settings: HRV32
[20] = test system: HRV33 (1200); assay: Anti-rhinovirus spectrum (MTT), HRV33; assay type: cell-based, human rhinovirus; parameters: Anti-Rhinovirus activity, HRV33: unit not given here; settings: HRV33
[21] = test system: HRV36 (342H); assay: Anti-rhinovirus spectrum (MTT), HRV36; assay type: cell-based, human rhinovirus; parameters: Anti-Rhinovirus activity, HRV36: unit not given here; settings: HRV36
[22] = test system: HRV39 (209); assay: Anti-rhinovirus spectrum (MTT), HRV39; assay type: cell-based, human rhinovirus; parameters: Anti-Rhinovirus activity, HRV39: unit not given here; settings: HRV39
[23] = test system: HRV41 (56110); assay: Anti-rhinovirus spectrum (MTT), HRV41; assay type: cell-based, human rhinovirus; parameters: Anti-Rhinovirus activity, HRV41: unit not given here; settings: HRV41
[24] = test system: HRV50(A2#58); assay: Anti-rhinovirus spectrum (MTT), HRV50; assay type: cell-based, human rhinovirus; parameters: Anti-Rhinovirus activity, HRV50: unit not given here; settings: HRV50
[25] = test system: HRV61 (6669-CV39); assay: Anti-rhinovirus spectrum (MTT), HRV61; assay type: cell-based, human rhinovirus; parameters: Anti-Rhinovirus activity, HRV61: unit not given here; settings: HRV61
[26] = test system: clinical isolate (89229T); assay: microbe, parasite or virus in culture; assay type: cell-based, human rhinovirus; parameters: Anti-Rhinovirus activity, Clinical isolated strain: unit not given here; settings: Clinical isolated strain
[27] = test system: HeLa cells; assay: Cytotoxicity (MTT, without virus), HeLa; settings: HeLa, no virus, incubated for 4 days
[28] = test system: HeLa-S3 cells; assay: Cytotoxicity (MTT, without virus), HeLa-S3; settings: HeLa-S3, no virus, incubated for 4 days
[29] = test system: HeLa (Ohio strain)cells; assay: Cytotoxicity (MTT, without virus), HeLa(Ohio); settings: HeLa(Ohio), no virus, incubated for 4 days

CCn1c2c(c(=O)c3c(C(C)C)c(OC)ccc31)Cc1ccccc1-2 [Compound B7]
IC50 Polio 1 [1]: 0.42 µg/mL (≈ 1.26 µM) | IC50 Echo 11 [2]: 0.25 µg/mL (≈ 0.75 µM) | IC50 CA7 [3]: 1.4 µg/mL (≈ 4.2 µM) | IC50 CB4 [4]: 0.52 µg/mL (≈ 1.56 µM) | Anti-Rhinovirus activity, HRV1A [5]: 1.7 | IC50 HRV 1A [5]: 1.7 µg/mL (≈ 5.1 µM) | Anti-Rhinovirus activity, HRV1B [6]: 0.20 | IC50 HRV1B [6]: 0.17 µg/mL (≈ 0.51 µM) | Anti-Rhinovirus activity, HRV2 [7]: 0.36 | IC50 HRV2 [7]: 0.36 µg/mL (≈ 1.08 µM) | Anti-Rhinovirus activity, HRV14 [8]: 0.49 | IC50 HRV 14 [8]: 0.49 µg/mL (≈ 1.47 µM) | Anti-Rhinovirus activity, HRV89 [9]: 0.30 | IC50 HRV89 [9]: 0.30 µg/mL (≈ 0.9 µM) | Anti-Rhinovirus activity, HRV3 [10]: 0.49 | Anti-Rhinovirus activity, HRV5 [11]: 0.22 | Anti-Rhinovirus activity, HRV8 [12]: 0.32 | Anti-Rhinovirus activity, HRV10 [13]: 0.41 | Anti-Rhinovirus activity, HRV13 [14]: 0.13 | Anti-Rhinovirus activity, HRV16 [15]: 0.98 | Anti-Rhinovirus activity, HRV21 [16]: 0.11 | Anti-Rhinovirus activity, HRV29 [17]: 0.43 | Anti-Rhinovirus activity, HRV31 [18]: 0.13 | Anti-Rhinovirus activity, HRV32 [19]: 0.30 | Anti-Rhinovirus activity, HRV33 [20]: 0.097 | Anti-Rhinovirus activity, HRV36 [21]: 0.16 | Anti-Rhinovirus activity, HRV39 [22]: 0.38 | Anti-Rhinovirus activity, HRV41 [23]: 0.064 | Anti-Rhinovirus activity, HRV50 [24]: 0.12 | Anti-Rhinovirus activity, HRV61 [25]: 0.28 | Anti-Rhinovirus activity, Clinical isolated strain [26]: 0.50 | Cytotoxicity CC50 HeLa [27]: >2.5 µg/mL | Cytotoxicity CC50 HeLa-S3 [28]: >2.5 µg/mL | Cytotoxicity CC50 HeLa(Ohio) [29]: >2.5 µg/mL

CCn1c2c(c(=O)c3cc(C(C)C)ccc31)Cc1cc(OC)ccc1-2 [Compound B10]
IC50 Polio 1 [1]: 0.17 µg/mL (≈ 0.51 µM) | IC50 Echo 11 [2]: 0.14 µg/mL (≈ 0.42 µM) | IC50 CA7 [3]: 1.4 µg/mL (≈ 4.2 µM) | IC50 CB4 [4]: 0.57 µg/mL (≈ 1.71 µM) | Anti-Rhinovirus activity, HRV1A [5]: 1.9 | IC50 HRV 1A [5]: 1.9 µg/mL (≈ 5.7 µM) | Anti-Rhinovirus activity, HRV1B [6]: 0.25 | IC50 HRV1B [6]: 0.25 µg/mL (≈ 0.75 µM) | Anti-Rhinovirus activity, HRV2 [7]: 0.16 | IC50 HRV2 [7]: 0.16 µg/mL (≈ 0.48 µM) | Anti-Rhinovirus activity, HRV14 [8]: 0.52 | IC50 HRV 14 [8]: 0.52 µg/mL (≈ 1.56 µM) | Anti-Rhinovirus activity, HRV89 [9]: 0.33 | IC50 HRV89 [9]: 0.33 µg/mL (≈ 0.99 µM) | Anti-Rhinovirus activity, HRV3 [10]: 0.48 | Anti-Rhinovirus activity, HRV5 [11]: 0.24 | Anti-Rhinovirus activity, HRV8 [12]: 0.20 | Anti-Rhinovirus activity, HRV10 [13]: 0.41 | Anti-Rhinovirus activity, HRV13 [14]: 0.12 | Anti-Rhinovirus activity, HRV16 [15]: 0.57 | Anti-Rhinovirus activity, HRV21 [16]: 0.16 | Anti-Rhinovirus activity, HRV29 [17]: 0.44 | Anti-Rhinovirus activity, HRV31 [18]: 0.15 | Anti-Rhinovirus activity, HRV32 [19]: 0.36 | Anti-Rhinovirus activity, HRV33 [20]: 0.11 | Anti-Rhinovirus activity, HRV36 [21]: 0.17 | Anti-Rhinovirus activity, HRV39 [22]: 0.39 | Anti-Rhinovirus activity, HRV41 [23]: 0.007 | Anti-Rhinovirus activity, HRV50 [24]: 0.10 | Anti-Rhinovirus activity, HRV61 [25]: 0.24 | Anti-Rhinovirus activity, Clinical isolated strain [26]: 0.75 | Cytotoxicity CC50 HeLa [27]: >2.5 µg/mL | Cytotoxicity CC50 HeLa-S3 [28]: >2.5 µg/mL | Cytotoxicity CC50 HeLa(Ohio) [29]: >2.5 µg/mL

CCn1c2c(c(=O)c3cc(CC(C)C)ccc31)Cc1cc(OC)ccc1-2 [Compound B12]
IC50 Polio 1 [1]: 0.39 µg/mL (≈ 1.12 µM) | IC50 Echo 11 [2]: 0.19 µg/mL (≈ 0.547 µM) | IC50 CA7 [3]: 2.0 µg/mL (≈ 5.76 µM) | IC50 CB4 [4]: 0.63 µg/mL (≈ 1.81 µM) | Anti-Rhinovirus activity, HRV1A [5]: >2.5 | IC50 HRV 1A [5]: >2.5 µg/mL | Anti-Rhinovirus activity, HRV1B [6]: 0.25 | IC50 HRV1B [6]: 0.25 µg/mL (≈ 0.72 µM) | Anti-Rhinovirus activity, HRV2 [7]: 0.31 | IC50 HRV2 [7]: 0.31 µg/mL (≈ 0.892 µM) | Anti-Rhinovirus activity, HRV14 [8]: 0.43 | IC50 HRV 14 [8]: 0.43 µg/mL (≈ 1.24 µM) | Anti-Rhinovirus activity, HRV89 [9]: 0.31 | IC50 HRV89 [9]: 0.31 µg/mL (≈ 0.892 µM) | Anti-Rhinovirus activity, HRV3 [10]: 0.52 | Anti-Rhinovirus activity, HRV5 [11]: 0.29 | Anti-Rhinovirus activity, HRV8 [12]: 0.32 | Anti-Rhinovirus activity, HRV10 [13]: 0.43 | Anti-Rhinovirus activity, HRV13 [14]: 0.091 | Anti-Rhinovirus activity, HRV16 [15]: 1.4 | Anti-Rhinovirus activity, HRV21 [16]: 0.17 | Anti-Rhinovirus activity, HRV29 [17]: 0.44 | Anti-Rhinovirus activity, HRV31 [18]: 0.11 | Anti-Rhinovirus activity, HRV32 [19]: 0.33 | Anti-Rhinovirus activity, HRV33 [20]: 0.12 | Anti-Rhinovirus activity, HRV36 [21]: 0.21 | Anti-Rhinovirus activity, HRV39 [22]: 0.38 | Anti-Rhinovirus activity, HRV41 [23]: 0.11 | Anti-Rhinovirus activity, HRV50 [24]: 0.12 | Anti-Rhinovirus activity, HRV61 [25]: 0.31 | Anti-Rhinovirus activity, Clinical isolated strain [26]: 0.46 | Cytotoxicity CC50 HeLa [27]: >2.5 µg/mL | Cytotoxicity CC50 HeLa-S3 [28]: >2.5 µg/mL | Cytotoxicity CC50 HeLa(Ohio) [29]: >2.5 µg/mL
